Like-named read-outs stand apart in the source and are kept apart here.
Legend:
[1] = test system: various HIV-1 subtypes; details: literature reports; read-out: IC50 against various HIV-1 subtypes; cited from earlier work
[2] = test system: HIV-1 subtype C pseudoviruses; details: cited from earlier work
[3] = test system: HIV-1 CAP210 pseudovirus; test: HIV-1 whole virus inhibition assay, CAP210 pseudovirus (luciferase, TZM-bl cells); type: cell-based
Procedure: (§1) The HIV pseudoviruses were produced from the plasmids that were kindly donated by Dr Mthunzi-Kufa (CSIR, South Africa). Competent DH5α cells and STBL2 cells were transformed with envelope (CAP210.2.00.E8 and Q23.17) and backbone plasmid (HIV-1 SG3 ΔEnv) through heat-shock at 42 °C for 90 seconds and cooled in ice for 5 minutes. The transformed cells were grown in Luria Bertani medium containing 100 μg mL^−1 ampicillin and glycerol stocks were prepared. The transformed cells were grown at 37 °C in a 200 rpm shaking incubator overnight and the plasmids were isolated from the cells using a GeneJET plasmid Miniprep Kit (ThermoFisher Scientific Inc). The purity of the isolated plasmids was assessed for purity using Nanodrop. The HEK 293T cells were co-transfected with the backbone (10 μg) and envelope plasmids (5 μg) using the PolyFect Transfection Reagent (QIAGEN N.V) for 8–12 hours and the transfected cells were grown for 48 hours producing pseudoviruses which were collected, and stocks stored at −80 °C.
(§2) The compounds were serial diluted from 100 to1.56 μM in 96 well plates (Separation Scientific SA (Pty) Ltd) and incubated with either CAP210 or Q23 pseudoviruses (200 TCID50) and incubated for 1 hour. The TZM-bl cells (1 × 10^5 cells per mL containing 7.5 μg mL^−1 DEAE-dextran) were added and incubated for 48 hours. The 96 well plates were centrifuged, and the supernatant was removed leaving only 50 μL in each well. The Bright-Glo™ Luciferase substrate (Anatech Instruments (Pty) Ltd) (50 μL) was added to each well and incubated for 2 minutes in the dark and chemiluminescence readings were taken in a Corning® 96-well white polystyrene plate using a SpectraMax® Paradigm® Multi-Mode Microplate Reader.

[4] = test system: HIV-1 Q23 pseudovirus; test: HIV-1 whole virus inhibition assay, Q23 pseudovirus (luciferase, TZM-bl cells); type: cell-based
Procedure: as §1, §2

[5] = test system: CAP210 pseudovirus; test: Time of drug addition assay, CAP210 pseudovirus in TZM-bl cells; type: cell-based, HIV-1; details: 3 μM, added 0, 2, 4, 6, 8 hours post-infection
Procedure: Fig. 5 Time of addition assay of CAP210 HIV infection treated with active compounds. TZM-bl cells were infected with CAP210 pseudoviruses and treated with compounds at various hours post-infection. NVP, 3g, and 4b were used at 3 μM, while 5f and 5h were used at 25 μM. The bars represent the mean ± SEM obtained from three independent experiments.
TZM-bl cells (1 × 10^5 cells per mL containing 7.5 μg mL^−1 DEAE-dextran) were infected with CAP210 pseudovirus at 400 TCID50 and incubated at 37 °C for 48 hours. The compounds were added to the wells at various time points (0, 2, 4, 6, and 8 hours) post-infection. […] After 48 hours, the cells were centrifuged at 1200 × g for 5 minutes, culture media was removed, leaving 50 μL, and Bright-Glo substrate (50 μL) was added to detect luciferase activity for 2 minutes at 37 °C. Inhibition of HIV pseudoviruses by active compounds was detected by reading for chemiluminescence using a Corning® 96-well white polystyrene using the SpectraMax® Paradigm® Multi-Mode Microplate Reader.

Cc1ccnc2c1NC(=O)c1cccnc1N2C1CC1 [NVP, nevirapine, reference compound]
IC50 [1]: ~30 nM
IC50 [2]: 30 nM
IC50 ([3]; TZM-bl, 48 h, read-out: IC50 (μM) CAP210, CAP210 pseudovirus, TZM-bl cells, 48 hours): 0.1 ± 0.002 µM
inhibition of CAP210 infection ([3]; all tested concentrations): 99%
IC50 ([4]; TZM-bl, 48 h, read-out: IC50 (μM) Q23, Q23 pseudovirus, TZM-bl cells, 48 hours): < 0.11 µM
inhibition of Q23 infection ([4]; all tested concentrations): 99%
IC50 ([4]; read-out: IC50 (μM) Q23, Q23 pseudovirus, TZM-bl cells, 48 hours): 0.11 ± 0.004 µM
inhibition of HIV infection by time of addition [5]: inhibit HIV infections for up to 8 hours

— publication PMC11883425, “The synthesis and investigation of novel 3-benzoylbenzofurans and pyrazole derivatives for anti-HIV activity” (RSC Medicinal Chemistry, 2025)
